The structures appear in SMILES notation. Entries after “also recorded” stand apart in the source; their conditions may differ.

Experiment [1] deals with T1, murine SR-BI (Mus musculus, UniProt Q61009).
T1 construct: expressed in transfected cells; host or cells: ldlA-7 (LDL receptor deficient Chinese hamster ovary cells)
T1 sequence (Q61009 1-509): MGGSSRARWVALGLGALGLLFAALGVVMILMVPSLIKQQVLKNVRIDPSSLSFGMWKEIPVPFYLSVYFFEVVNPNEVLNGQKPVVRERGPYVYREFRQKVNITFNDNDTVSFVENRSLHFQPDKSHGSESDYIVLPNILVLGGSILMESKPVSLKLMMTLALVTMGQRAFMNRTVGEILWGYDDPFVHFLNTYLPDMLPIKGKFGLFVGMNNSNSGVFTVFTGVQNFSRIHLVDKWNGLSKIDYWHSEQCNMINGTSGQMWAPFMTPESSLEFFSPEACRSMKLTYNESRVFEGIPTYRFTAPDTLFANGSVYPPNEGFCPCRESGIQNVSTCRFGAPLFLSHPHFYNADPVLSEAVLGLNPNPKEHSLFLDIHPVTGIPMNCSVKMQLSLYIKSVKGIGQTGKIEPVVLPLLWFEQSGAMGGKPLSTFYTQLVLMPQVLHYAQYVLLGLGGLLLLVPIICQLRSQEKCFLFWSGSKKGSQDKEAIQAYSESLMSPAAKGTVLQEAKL
Put plainly: Uptake of DiI from DiI-HDL by ldlA[mSR-BI] cells (high throughput screen and concentration dependence). The format is cell-based. Particulars: for EC50 / Inhibition of SR-BI-mediated lipid transport / DiI uptake, concentration range in words: ldlA[mSR-BI] cells; for EC50: inhibition, mean ± SD, n=3.

In experiment [2] the target is T1, murine SR-BI. Put plainly: Uptake of [3H]cholesteryl ether from [3H]CE-HDL by ldlA[mSR-BI] cells. The format is cell-based. Particulars: for EC50: inhibition, mean ± SD, n=6 (n=5 where footnoted), read-out: (A) EC50 [^3H]CEt HDL uptake. How it is done:
(§1) Cells were pre-incubated with BLTs for 1 hr (or 2.5 hrs for transferrin, EGF and cholera toxin uptake experiments) and all the experiments were performed at 37° C. Detailed characterization of the BLTs and their effects was performed with compounds whose identities and purities were confirmed by LC-MS.
(§2) Assays for the uptake of lipids from DiI-HDL and [^3]CE-HDL, efflux of [^3H]cholesterol from labeled cells, and ^125I-HDL binding were performed as described by Acton et al. Science (1996) January 26;271(5248):518-20; Gu, et al. J Biol. Chem. (2000) September 29;275(39):29993-30001; and Ji, et al., J. Biol. Chem. (1997) 272, 20982-5. In some experiments, values were normalized so that the 100% of control represents activity in the absence of compounds and 0% represents activity determined in the presence of a 40-fold excess of unlabeled HDL or, for Y1-BS1 cells, in the presence of a 1:500 dilution of the KKB-1 blocking antibody (Gu, et al., 2000, generous gift from Karen Kozarsky). The amounts of cell-associated [^3H]cholesteryl ether are expressed as the equivalent amount of [^3H]CE-HDL protein (ng) to permit direct comparison of the relative amounts of ^125I-HDL binding and [^3H]CE uptake.

The target of experiment [3] is T2, SR-BI (Mus musculus, UniProt Q61009).
T2 construct: endogenous in cells; host or cells: Y1-BS1 murine adrenocortical cells (ACTH induced)
T2 sequence (Q61009 1-509): T1 sequence (Q61009 1-509)
Put plainly: Uptake of [3H]CE from [3H]CE-HDL by Y1-BS1 adrenocortical cells. The format is cell-based, murine. Particulars: inhibition, n=2, read-out: (A) EC50 [^3H]CEt HDL uptake (Y1-BS1 cells).
Description: Biol. Chem. 273, 26338-48; Gu, et al. (2000) J. Biol. Chem. 275, 29993-30001; Acton, et al. (1994) J. Biol. Chem. 269, 21003-9; Pitas, et al. (1981) Arteriosclerosis 1, 177-85). LDL receptor deficient Chinese hamster ovary cells that express low levels of endogenous SR-BI, ldlA-7 (Kingsley, et al. (1984) Proc. Nat. Acad. Sci. USA 81, 5454-8), ldlA-7 cells stably transfected to express high levels of murine SR-BI (ldlA[mSR-BI])(Acton, et al., 1996), Y1-BS1 murine adrenocortical cells that express high levels of SR-BI after induction with ACTH (Rigotti, et al. (1996) J. Biol. Chem. 271, 33545-9), monkey kidney BS-C1 cells (Kapoor, et al. (2000) Journal of Cell Biology 150, 975-88) and HeLa cells (Temel, et al. (2002) J Biol Chem 8, 8) were maintained as previously described.
as §1, §2

In experiment [4] the target is T1, murine SR-BI. Put plainly: Efflux of [3H]cholesterol from ldlA[mSR-BI] cells to HDL. The format is cell-based. Particulars: for EC50: inhibition of efflux to HDL, mean ± SD, n=3. How it is done:
as §1, §2
In addition to mediating selective lipid uptake from HDL, SR-BI can facilitate the efflux of unesterified cholesterol from cells to HDL particles (Jian, et al. (1998) J Biol Chem 273, 5599-606. Ji, et al. (1997) J. Biol. Chem. 272, 20982-5). To determine if the BLTs could inhibit this SR-BI-mediated lipid transport activity, cells were labeled with [^3H]cholesterol and its efflux to unlabeled HDL measured in the presence or absence of the BLTs. (FIG. 2C, table II). Cells were incubated for 3 hrs in the absence (top panels) or presence (bottom panels) of 50 micromolar BLT-1 (MIT 9952-53) and epifluorescence light microscopy was used to monitor the following cellular activities: clathrin-dependent endocytosis of fluorescently labeled transferrin (A,B; HeLa cells) and EGF (C,D; HeLa cells); clathrin-independent endocytosis of fluorescently labeled cholera toxin (E, F; BSC-1 cells), and transport of the temperature sensitive fluorescent membrane protein VSVG^ts045-EGFP from the ER to the cell surface (G,H; BSC-1 cells). In addition, the intracellular distributions of the actin cytoskeleton (visualized with rhodamine labeled phalloidin, I,J; ldlA-[mSRBI] cells) and the tubulin network (visualized with fluorescently labeled antibodies specific to y-tubulin, K,L; BSC-1 cells) were determined. BLT-1 (MIT 9952-53) and the other BLTs (not shown) had no effects on any of these cellular properties or activities.

Experiment [5] concerns the target T1, murine SR-BI. Put plainly: 125I-HDL binding to ldlA[mSR-BI] cells. Particulars: for (B) Binding Parameters Bmax: 125I-HDL binding sites in presence of BLT at its ICCE95, no BLT control 100.0 ± 18.4; for Effect on HDL binding to SR-BI / EC50: ldlA[mSR-BI] cells; for EC50: enhancement of HDL binding, 10 μg protein/ml HDL, mean ± SD, n=3, read-out: (A) EC50 ^1nI-HDL binding. On the procedure:
as §1, §2
It was initially expected that the BLTs would function by inhibiting HDL binding to SR-BI. However, when cells were incubated with a sub-saturating concentration of either [^3H]CE-HDL or ^125I-labeled HDL (^125I-HDL) (10 μg protein/ml) and increasing amounts of compound (FIG. 5), the decreases in [^3H]CE uptake (solid lines, no symbols, data from FIG. 2B) and [3H]cholesterol efflux (dashed lines, data from FIG. 2C) were accompanied by corresponding increases in ^125I-HDL binding (solid lines, square symbols). The concentration dependence of ^125I-HDL binding was determined in the presence or absence of BLTs at their ICCE95 concentrations (FIG. 6 and Table II).

Experiment [6] concerns the target T1, murine SR-BI. Put plainly: Rate of 125I-HDL dissociation from cells. Particulars: dissociation of 125I-HDL from ldlA[mSR-BI] cells in presence of BLT; no BLT control 0.11; n=2; read-out: (B) Binding Parameters Koff (converted). How it is done: The rates of HDL dissociation from cells were determined by incubation of the cells with ^125I-HDL (10 μg protein/ml, 2 hrs, 37° C.) with and without BLTs. The medium was then either replaced with the same medium in which the ^125I-HDL was substituted by a 40-fold excess of unlabeled HDL or a 40-fold excess of unlabeled HDL was added to the labeled incubation medium. The amounts of cell-associated ^125I-HDL were then determined as a function of time. The two methods gave similar results.

In experiment [7] the test system is HeLa cells. Put plainly: Receptor mediated endocytosis of labeled transferrin and EGF, fluorescence microscopy. The format is cell-based. Particulars: BLTs at ICCE95, 50 micromolar BLT-1, 3 hrs.
For experiment [8], the system named is BSC-1 cells. The format is cell-based, monkey. Particulars: BLTs at ICCE95, 50 micromolar BLT-1, 3 hrs.
The subject of experiment [9] is BSC-1 cells. The format is cell-based, monkey.
Experiment [10] has as its system ldlA[mSR-BI] cells. Put plainly: Distribution of actin and tubulin networks, fluorescence microscopy. The format is cell-based, Chinese hamster. Particulars: BLTs at ICCE95; 50 micromolar BLT-1, 3 hrs.

As to `CCCCCCC1CCC/C1=N\NC(N)=S` (stereo not drawn) [MIT 9952-53], in experiment [1], the “ENDOHDL Test 1” value is listed as 0.53; the “ENDOHDL Test 2” value is given as 0.46; the midpoint of the response, the EC50, lay at 0.06 ± 0.04 µM. Moreover, in [1] (listed as BLT-1), the “Inhibition of SR-BI-mediated lipid transport / DiI uptake, concentration range in words” value was “low nanomolar concentration range; also recorded: inhibited in the nanomolar range”. In [2], the “ICCE95 concentration (inhibits [3H]CE uptake by 95%)” value stood at 1 µM and the EC50 came to 0.11 ± 0.08 µM. For the same compound, the EC50 in experiment [3] was 0.38 µM. For the same compound, the EC50 in [4] was 0.15 ± 0.09 µM. Besides, in experiment [5], the “(B) Binding Parameters Bmax” value is 95.8 ± 10.1%, the “Effect on HDL binding to SR-BI” value is “enhanced” and the EC50 is 0.088 ± 0.05 µM. Further, in experiment [6], the koff was 0.001 s⁻¹. Moreover, the “Uptake and intracellular distribution of labeled transferrin and EGF (clathrin-dependent endocytosis)” value in experiment [7] is reported as “no effects”. Further, the “Uptake of labeled cholera toxin (clathrin-independent endocytosis)” value in experiment [8] is “no effects”. Moreover, the “Secretory pathway: transport of VSVGts045-EGFP from ER to cell surface” value in [9] is “no effects”. The “Integrity/distribution of actin and tubulin networks” value in experiment [10] is recorded as “no effects”.

Take `CCCCOCCC1CCC/C1=N\NC(N)=S` (stereo not drawn) [MIT 9952-61]: in experiment [1], the “ENDOHDL Test 1” value is 0.7; the “ENDOHDL Test 2” value turned out to be 0.57; the “Inhibition of SR-BI-mediated lipid transport / DiI uptake, concentration range in words” value is “inhibited in the nanomolar range”; the EC50 was 0.35 ± 0.18 µM. In addition, in experiment [2], the “ICCE95 concentration (inhibits [3H]CE uptake by 95%)” value amounted to 1 µM and the half-maximal effective concentration (EC50) was 0.24 ± 0.1 µM. In addition, the EC50 in experiment [3] is 0.41 µM. Further, in experiment [4], the response was half-maximal at 0.47 ± 0.23 µM (EC50). Moreover, in experiment [5], the “(B) Binding Parameters Bmax” value is 93.0 ± 20.5%, the “Effect on HDL binding to SR-BI” value is recorded as “enhanced” and the EC50 came out at 0.25 ± 0.13 µM. Further, the koff in experiment [6] was 0.00103 s⁻¹.

Compound `c1ccc(-c2noc(-c3ccccc3)c3cccc2-3)cc1` [MIT 9952-19] showed an EC50 in experiment [1] of 0.51 ± 0.15 µM. Also, in experiment [2], the “ICCE95 concentration (inhibits [3H]CE uptake by 95%)” value stood at 50 µM and the EC50 turned out to be 2.3 ± 1.5 µM. Further, the EC50 in [3] came to 1.7 µM. Also, in experiment [4], the “ICFC50 for efflux compared with that for uptake” value was “higher” and the EC50 came to 17.2 ± 4 µM. In addition, in [5], the “(B) Binding Parameters Bmax” value came out at 85.8 ± 15.8%, the “Effect on HDL binding to SR-BI” value was “enhanced” and the EC50 came out at 46.5 ± 49.3 µM. Further, the koff in experiment [6] is 0.00133 s⁻¹.

With `C/C(=N\NC(=O)c1ccccc1I)c1ccc(N)cc1` [MIT 9952-6], in [1], the “ENDOHDL Test 1” value turned out to be 0.52, the “ENDOHDL Test 2” value was determined as 0.54 and the EC50 came to 7.1 ± 3.7 µM. Moreover, in [2], the “ICCE95 concentration (inhibits [3H]CE uptake by 95%)” value came to 50 µM and the EC50 was 13.8 µM. The EC50 in [3] turned out to be 8 µM. In experiment [4], the “ICFC50 for efflux compared with that for uptake” value was “higher” and it took 75.3 ± 40.1 µM to reach a half-maximal effect (EC50). Besides, in experiment [5], the “(B) Binding Parameters Bmax” value amounted to 92.1 ± 36.8%, the “Effect on HDL binding to SR-BI” value is reported as “enhanced” and the EC50 came to 18 ± 3.7 µM. In addition, the koff in [6] was 0.00132 s⁻¹.

As for `COc1ccccc1NC(=O)Nc1ccc2ccccc2c1` [MIT 9952-29], the EC50 in experiment [1] came out at 2 ± 1 µM; in experiment [2] it was 3.9 µM; in experiment [3] it was 4.4 µM; in [4] it was 54.9 ± 35.2 µM; in [5] it was 24.9 ± 14.8 µM. Besides, the “ICCE95 concentration (inhibits [3H]CE uptake by 95%)” value in experiment [2] came out at 50 µM. The “ICFC50 for efflux compared with that for uptake” value in experiment [4] is recorded as “higher”. For the same compound, the “(B) Binding Parameters Bmax” value in experiment [5] came out at 79.9 ± 15.9%. For the same compound, the “Effect on HDL binding to SR-BI” value in experiment [5] is recorded as “enhanced”. Further, the koff in experiment [6] is 0.00137 s⁻¹.

Source of the values: US20040171073A1, “Compounds for modulation of cholesterol transport” (Massachusetts Institute of Technology, priority 2002, published 2004).
